Results published in the COVID Moonshot data (paper PMC7615835).
pIC50: −log10 of the molar value. Several values for one entry are separate records, joined by “and”; a condition that tells them apart may be missing. Identical values can stand only once.

target: SARS-CoV-2 Main Protease (SARS-CoV-2) (UniProt P0DTD1)

Structure (SMILES)	pIC50
O=C(Cc1cccc(Cl)c1)Nc1cncc2cccc(Cl)c12	6.23
C=CC(=O)N(c1ccc(C(C)(C)C)cc1)C(C(=O)NC)c1cccnc1 (stereo unspecified)	4.45
CS(=O)(=O)N1CCN(C(=O)CCl)CC1c1ccccc1 (stereo unspecified)	4.97
COc1ccc(NC(=O)[C@@H]2CN(C(=O)CCl)CCN2S(=O)(=O)c2ccsc2)cc1 (stereo in doubt)	6.35
O=C(Nn1nnc2ccccc21)C(Cc1cccc(Cl)c1)c1ccc(N2CCCCC2=O)cc1 (stereo unspecified)	4.29
CC(C)(C)c1ccc(N(C(=O)c2nnc(O)cc2O)C(C(=O)NCCc2cccc(F)c2)c2cccnc2)cc1 (stereo unspecified)	< 4.00
O=C1N(c2cncc3ccccc23)CCC12CN(S(=O)(=O)CC1(C(F)F)CC1)Cc1ccc(Cl)cc12 (stereo unspecified)	6.81
O=C1CC2(CCOc3ccc(Cl)cc32)CN1c1cncc2ccccc12 (stereo unspecified)	5.17
COCCN(C)S(=O)(=O)N1Cc2ccc(Cl)cc2C2(CCN(c3cncc4ccccc34)C2=O)C1 (stereo unspecified)	6.00
O=C(CN1Cc2ccc(Cl)cc2C(C(=O)Nc2cncc3ccccc23)C1)NC1CC1 (stereo unspecified)	7.12 and 7.00 and 6.73
O=C1N(c2cncc3ccccc23)CCC12CN(S(=O)(=O)CC1CS(=O)(=O)C1)Cc1ccc(Cl)cc12 (stereo unspecified)	6.45
N#CC1(CS(=O)(=O)N2Cc3ccc(Cl)cc3C(C(=O)Nc3cncc4ccccc34)C2)CCOCC1 (stereo unspecified)	7.09 and 7.01 and 6.77
CC(C(=O)Nc1cccc2nccnc12)n1cnc2c(N)ncnc21 (stereo unspecified)	< 4.00
O=C(Cc1cc(Cl)cc(Nc2cccc(F)c2[N+](=O)[O-])c1)Nc1cncc2ccccc12	5.70
CC1(C)Cc2cccc(OCCNC(=O)c3cc(=O)[nH]c4cc(F)ccc34)c2O1	< 4.00
O=C(Cc1cccc(Cl)c1)N1CC(O)Cc2ccccc21 (stereo unspecified)	< 4.00
N#CC1(CS(=O)(=O)N2Cc3ccc(Cl)cc3C3(CCN(c4cncc5ccccc45)C3=O)C2)CCC1 (stereo unspecified)	6.58
O=C(CCl)NC(CO)c1cccc(Cl)c1 (stereo unspecified)	< 4.00
N#CC1(CS(=O)(=O)N2Cc3ccc(Cl)cc3C(C(=O)Nc3cncc4cc(F)ccc34)C2)CC1 (stereo unspecified)	6.65
Cn1ccc2cc(N(C(=O)c3cnc[nH]3)C(C(=O)NCCc3cccc(F)c3)c3cccnc3)ccc21 (stereo unspecified)	< 4.00
O=C(Nc1cncc2ccccc12)C1CCOc2c1ccc(Cl)c2Cl (stereo unspecified)	5.48
CN(Cc1cccc(Cl)c1)C(=O)Cn1nnc2ccccc21	< 4.00
Cc1ncc(CN2CC(C(=O)Nc3cncc4cc(S(C)(=O)=O)ccc34)c3cc(Cl)ccc3C2=O)[nH]1 (stereo unspecified)	6.65
O=C(Nc1cncc2ccccc12)C1CN(Cc2nnc[nH]2)Cc2ccc(Cl)cc21 (stereo unspecified)	6.11
O=C(O)CCc1cc2c(cc1S(=O)(=O)N1CCN(c3ccccc3)CC1)OCO2	< 4.00
O=C(Nc1ccccn1)[C@H]1CN(C(=O)CCl)CCN1S(=O)(=O)c1ccsc1 (stereo in doubt)	5.32

Structure (SMILES)	pIC50
COC(=O)C(C)NC(=O)C(c1cccnc1)N(C(=O)c1cocn1)c1ccc(C(C)(C)C)cc1 (stereo unspecified)	5.14
CCS(=O)(=O)c1ccc(CNS(=O)(=O)c2cnc(-c3ccccc3)s2)s1	< 4.00
COCCNC(=O)C(c1cccnc1)N(C(=O)c1cocn1)c1ccc(C(C)(C)C)cc1 (stereo unspecified)	5.07
COc1cc(Nc2cc(Cl)cc(CC(=O)Nc3cncc4ccccc34)c2)nc(OC)n1	5.66
Cc1nc2ccc(NC(=O)Cn3ncn4nccc4c3=O)cc2s1	< 4.00
O=C(Cc1cc(Cl)cc(Nc2cccc(C(F)(F)F)n2)c1)Nc1cncc2ccccc12	5.67
C[n+]1ccn(CCc2cccc(Cl)c2)c1C#N	< 4.00
O=C(N/N=c1\cc[nH]c2ccccc12)c1ccc2ncccc2c1	< 4.00
N#CC1(CS(=O)(=O)N2Cc3ccc(Cl)cc3C3(CCN(c4cncc5ccccc45)C3=O)C2)CCS(=O)(=O)CC1 (stereo unspecified)	6.68
O=C(Cc1cccnc1)Nc1cccc(OC2CC(=O)N2)c1 (stereo unspecified)	4.08 and 4.03
COCCCNCC1(C(=O)Nc2cncc3ccccc23)CCOc2ccc(Cl)cc21 (stereo unspecified)	4.94
CC1CCNC(=O)C1NC(=O)Cc1cccc(Cl)c1 (stereo unspecified)	4.36
O=C(Cc1cc(Cl)cc(Nc2c(Cl)cc(Cl)cc2Br)c1)Nc1cncc2ccccc12	5.79
O=C(Cc1cncc2ccccc12)Nc1cc(Cl)cc(OC2CCC(=O)N2)c1 (stereo unspecified)	4.42
COc1cc2cncc(NC(=O)Cc3cccc(Cl)c3)c2cc1F	< 4.00
CC(C)(C)c1ccc(N(C(=O)c2cocn2)C(C(=O)NCCc2cccc(F)c2)c2cccnc2)cc1 (stereo unspecified)	6.25
CNC(=O)C1(N2Cc3ccc(Cl)cc3C3(CCN(c4cncc5ccc(OCCN(C)C)cc45)C3=O)C2)CC1 (stereo unspecified)	6.21
COc1cncc(C(C(=O)NCCc2cccc(F)c2)N(C(=O)c2ccco2)c2ccc(C(C)(C)C)cc2)c1C (stereo unspecified)	< 4.00
CCOc1ccc(N(C(=O)c2cnc[nH]2)C(C(=O)NCCc2cccc(F)c2)c2cccnc2)cn1 (stereo unspecified)	< 4.00
CC(=O)NCc1cc(Cl)cc(CC(=O)Nc2cnccc2C)c1	4.38
O=C(NCCc1cccc(F)c1)C(c1cccnc1)N(C(=O)c1cocn1)c1ccc(N2CCCS2(=O)=O)cc1 (stereo unspecified)	4.56
O=C(Cc1cc(Cl)cc(Nc2ccc(I)c(F)c2)c1)Nc1cncc2ccccc12	5.69
CNC(=O)CN1CC2(CCN(c3cncc4cc(F)ccc34)C2=O)c2cc(Cl)ccc2C1=O (stereo unspecified)	6.37
CCN(CC)CCOc1ccc2cncc(N3CCC4(CN(S(=O)(=O)CC5(C#N)CC5)Cc5ccc(Cl)cc54)C3=O)c2c1 (stereo unspecified)	6.74
O=C(NCCc1cccc(F)c1)C(c1cccnc1)N(Cc1ccccc1C1CCC1)C(=O)c1ccco1 (stereo unspecified)	5.71
